Laboratory results reported in patent US7229785B2, “Fluorescence technique for on-line monitoring of state of hydrogen-producing microorganisms” (priority 2002, dated 2007).

Columns and labels:
[1] = tested on: C. reinhardtii cells; experiment: Inhibitor (KCN, SHAM) effect on rates of dark respiration during sulfur deprivation, Clark electrode; assay type: cell-based, Chlamydomonas reinhardtii; conditions: SHAM 4 mM, 5 min, 17% O2
Procedure: To determine the precise moment of H2-photoproduction onset, we measured the percentage of H2 contained in the gas phase (˜7 ml) on the top of the vessel immediately after anaerobiosis by gas chromatography. The dissolved O2 and redox potential of the medium were also measured. Chlorophyll concentrations were then obtained spectrophotometrically in 95% ethanol cell extracts. The capacity for respiratory O2 consumption was measured with a Clark electrode at 25° C. under aerobic conditions (17% or 170 μM O2) after removing the samples from the culture vessel and equilibrating them with air for 5 minutes.
The PQ pool is further oxidized by dissolved O2 through the action of PQ-oxidase. In the mitochondria, NADH and FADH2 generated by the Krebs Cycle serve as the source of electrons for a membrane-bound electron transport chain with O2 as the final electron acceptor. The cytochrome oxidase transduces the production of 3 ATP molecules per pair of electrons transported. […]. In both cases, O2 is the terminal electron acceptor. The mitochondrial cytochrome oxidase in C reinhardtii is inhibited by KCN, carbon monoxide, and sodium azide, while the alternative oxidase is specifically affected by salicylic hydroxamic acid (SHAM). The putative chloroplast PQ oxidase, on the other hand, is not inhibited by SHAM and only slightly affected by KCN. By measuring the influence of two inhibitors, KCN and SHAM, on the rates of dark respiration, we tried to estimate the relative contributions of each of the three oxidases at different times after sulfur deprivation. The actual contributions of the three oxidases to the scavenging O2 in situ depend on many factors such as their relative KM's for O2 and the rate of diffusion of O2 from the chloroplast to the mitochondria. Thus, the inhibitor studies that follow may not directly reflect the actual situation in the photobioreactor, but they do indicate that changes in the relative contribution of the three oxidases occur over the course of sulfure deprivation.
Contributions to the mitochondrial cytochrome oxidase [CO], mitochondrial alternative oxidase [AO], and chlororespiration [CR] to the total respiration rate of C. reinhardtii cells are also shown during sulfur-deprivation. […].

[2] = tested on: sulfur-depleted C. reinhardtii cells; experiment: Effect of DCMU on the rate of H2 photoproduction by sulfur-depleted algal cultures; assay type: cell-based, Chlamydomonas reinhardtii; conditions: 10 μM DCMU added to culture after H2 gas production has started
Procedure: […]. DCMU was added to treated cells at the arrow. Time zero in this case represents the time after H2 photoproduction starts.
Chlamydomonas reinhardtii strain Dangeard C137+ was grown in Tris-acetate-phosphate (TAP) medium (pH, 7.0) under continuous cool-white fluorescent light. Late-log cells were pelleted three times by centrifiguation and re-suspended in the same medium, from which inorganic sulfure (TAP-S) was omitted. The cells were incubated under continuous fluorescent illumation (200-250 μE m^−2 s^−1 PAR) in cylindrical reactor vessels (600 ml) with a rotating glass rod and Teflon impellers for mixing. A magnetic bar was attached at the bottom of the rod to couple it to an external stirring motor, and the rate of mixing was 60-80 rpm. The vessels were sealed using a silicon stopper with an outlet tube inserted through it for gas collection. The gas produced by the cells was collected in an inverted graduated glass cylinder by water displacement.
The direct involvement of PSII-catalyzed water oxidation activity by sulfur-deprived cells was further investigated using PAM fluorescence techniques.

Molecule | % SHAM inhibition (% AO) of respiration ([1]; During H2 production) | % SHAM inhibition (% AO) of respiration ([1]; End of H2 production) | % SHAM inhibition (% AO) of respiration ([1]; Start of H2 production phase) | % SHAM inhibition (% AO) of respiration ([1]; Start of anaerobic phase) | % SHAM inhibition (% AO) of respiration ([1]; Start of sulfur depletion) | decrease of the rate of H2 gas production [2]
O=C(NO)c1ccccc1O [SHAM, salicylic hydroxamic acid] | 38% | 100% | 13% | 0% | 25% | 
DCMU |  |  |  |  |  | 80%
